The values that follow come from patent EP0326331B1, “Substituted quinolines and cinnolines” (Dow AgroSciences LLC, priority 1988, dated 1989).

Common to all, as to format: in vivo
For assay [1], the system named is Septoria tritici (leaf blotch). Briefly: Test 1 greenhouse foliar spray screen, leaf blotch on wheat. The conditions noted are these: disease control rating, foliar spray on wheat, 400 ppm (+++ at 100 ppm).
For assay [2], the system named is Pseudoperonospora cubensis (downy mildew). Briefly: Test 1 greenhouse foliar spray screen, downy mildew on squash. The conditions noted are these: for DOWN MDEW: disease control rating, foliar spray on squash, 400 ppm (+++ at 100 ppm).
For assay [3], the system named is Twospotted spider mites (Tetranychus urticae Koch). Briefly: Mite/insect screen, SM. The conditions noted are these: Tetranychus urticae, percent mortality, read-out: SM RESULTS %. In outline:
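Activity is expressed as percent mortality at the indicated spray concentrations. Plants are sprayed to runoff on upper and lower leaf surfaces with aqueous dilutions of an acetone/alcohol emulsifiable formulation, then dried for one hour.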

In assay [4] the test system is Venturia inaequalis (apple scab). Briefly: Test 1 greenhouse foliar spray screen, apple scab on apple seedling. The conditions noted are these: disease control rating, foliar spray on apple seedling, 400 ppm (+++ at 100 ppm).
For assay [5], the system named is Cercospora beticola (leaf spot). Briefly: Test 1 greenhouse foliar spray screen, leaf spot on sugar beet. The conditions noted are these: disease control rating, foliar spray on sugar beet, 400 ppm (+++ at 100 ppm).
The test system of assay [6] is melon aphids (Aphis gossypii Glover). Briefly: Mite/insect screen, MA. To be noted: Aphis gossypii, percent mortality, read-out: MA RESULTS %. In outline:
(§1)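 Compounds dissolved in 50:50 acetone/alcohol containing sulfonate/nonionic emulsifier blends, then diluted with water to the indicated concentrations. Leaves sprayed on both surfaces to runoff at 10 psi and dried one hour. Percent mortality scored after standard exposure periods.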

The subject of assay [7] is southern armyworm (Spodopetra eridania Cramer). Briefly: Mite/insect screen, SAW. To be noted: Spodoptera eridania, percent mortality, read-out: SAW RESULTS %. In outline:
as §1

In assay [8] the test system is Botrytis cinerea (gray mold). Briefly: Test 1 greenhouse foliar spray screen, gray mold on grape berries. To be noted: disease control rating, spray on grape berries, 400 ppm (+++ at 100 ppm).
Assay [9] has as its system Pyricularia oryzae (rice blast). Briefly: whole plant or invertebrate. The conditions noted are these: disease control rating, foliar spray on rice, 400 ppm (+++ at 100 ppm).
Assay [10] concerns Puccinia recondita tritici (leaf rust). Briefly: Test 1 greenhouse foliar spray screen, leaf rust on wheat. The conditions noted are these: disease control rating, foliar spray on wheat, 400 ppm (+++ at 100 ppm).
The test system of assay [11] is Erysiphe graminis tritici (powdery mildew). Briefly: Test 1 greenhouse foliar spray screen, powdery mildew on wheat. To be noted: disease control rating, foliar spray on wheat, 400 ppm (+++ at 100 ppm).
For assay [12], the system named is corn rootworm. Briefly: Mite/insect screen, CRW. To be noted: percent mortality, read-out: CRW RESULTS %. In outline: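 Compounds were dissolved in 50:50 acetone/alcohol containing sulfonate/nonionic emulsifier blends (23 g/L plus 13 g/L), then diluted with water to the test concentrations. Percent mortality was scored after standard exposure periods.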
[13] abbreviates: foliar, rate 200 ppm, foliar spray on squash.
Where [14] appears, read: foliar, rate 400 ppm, foliar spray on squash.

SMILES strings stand for the structures. Like-named read-outs stand apart in the source and are kept apart here.

Take `Fc1cccc2c(NCCc3ccc(Cl)s3)ccnc12` [Example 163, N-[2-(5-chloro-2-thienyl)ethyl]-8-fluoro-4-quinolinamine]: the “LEAF BLOT” value in assay [1] was “- (0-19% control at 400 ppm)”. Further, the “DOWN MDEW” value in assay [2] was “++ (90-100% control at 400 ppm)”. Moreover, the mortality at 200 ppm was 0% in assay [3] (SAW, SM & MA RATE 200 PPM); 0% in [6] (SAW, SM & MA RATE 200 PPM); 0% in [7] (SAW, SM & MA RATE 200 PPM). Moreover, the “APPL SCAB” value in assay [4] is “- (0-19% control at 400 ppm)”. For the same compound, in [5], the “LEAF SPOT” value is on record as “+++ (90-100% control at 100 ppm)”. Also, in assay [8], the “GRAY MOLD” value was “- (0-19% control at 400 ppm)”. Moreover, the “RICE BLAST” value in assay [9] was “+ (20-89% control at 400 ppm)”. Further, in [10], the “LEAF RUST” value is recorded as “+++ (90-100% control at 100 ppm)”. Moreover, in assay [11], the “POWD MDEW” value is reported as “++ (90-100% control at 400 ppm)”. Moreover, the mortality at 12 ppm in assay [12] (CRW RATE 12.00 PPM) was 0%.
On to `Fc1cccc2c(NCCc3c[nH]cn3)ccnc12` [Example 164, 8-fluoro-N-[2-(1H-imidazol-4-yl)ethyl]-4-quinolinamine], for which the “LEAF BLOT” value in [1] was “- (0-19% control at 400 ppm)”. Moreover, the “DOWN MDEW” value in [2] is on record as “++ (90-100% control at 400 ppm)”. Besides, the mortality at 200 ppm in [3] (SAW, SM & MA RATE 200 PPM) came to 0%; in assay [6] (SAW, SM & MA RATE 200 PPM) it was 0%; in assay [7] (SAW, SM & MA RATE 200 PPM) it was 0%. Moreover, the “APPL SCAB” value in assay [4] was “- (0-19% control at 400 ppm)”. The “LEAF SPOT” value in assay [5] is listed as “+ (20-89% control at 400 ppm)”. Moreover, the “GRAY MOLD” value in assay [8] was “+ (20-89% control at 400 ppm)”. Also, in assay [9], the “RICE BLAST” value is recorded as “+ (20-89% control at 400 ppm)”. Also, the “LEAF RUST” value in assay [10] is “+ (20-89% control at 400 ppm)”. In assay [11], the “POWD MDEW” value was “- (0-19% control at 400 ppm)”. For the same compound, the mortality at 12 ppm in assay [12] (CRW RATE 12.00 PPM) was determined as 0%.
Take `Clc1ccc2c(NCCC3=CCCCC3)ccnc2c1` [Example 165, 7-chloro-N-[2-(1-cyclohexenyl)ethyl]-4-quinolinamine]: the “LEAF BLOT” value in assay [1] is “- (0-19% control at 400 ppm)”. Moreover, in assay [2], the “DOWN MDEW” value was “+++ (90-100% control at 100 ppm)”. Also, the “activity against downy mildew” value in [2] (summary statement in the description) was “particularly excellent activity”. Further, the mortality at 200 ppm in assay [3] (setting [13]), in assay [6] (setting [13]) and in assay [7] (setting [13]) was 0% throughout. Besides, the mortality at 400 ppm in assay [3] (SAW, SM & MA RATE 400 PPM) was found to be 0%; in assay [6] (SAW, SM & MA RATE 400 PPM) it was 0%; in [7] (SAW, SM & MA RATE 400 PPM), 0%. For the same compound, in assay [4], the “APPL SCAB” value was “+ (20-89% control at 400 ppm)”. In assay [5], the “LEAF SPOT” value is recorded as “+++ (90-100% control at 100 ppm)”. Further, in assay [8], the “GRAY MOLD” value is “- (0-19% control at 400 ppm)”. Also, the “RICE BLAST” value in [9] is recorded as “++ (90-100% control at 400 ppm)”. In addition, the “LEAF RUST” value in assay [10] is given as “++ (90-100% control at 400 ppm)”. Further, the “POWD MDEW” value in [11] was “+ (20-89% control at 400 ppm)”. In addition, in [12] (CRW RATE 24.00 PPM), the mortality at 24 ppm turned out to be 0%. Further, the mortality at 12 ppm in assay [12] (CRW rate 12.00 ppm) was determined as 0%.
`Clc1ccc2c(NCCc3ccc4ccccc4c3)ccnc2c1` [Example 166, 7-chloro-N-[2-(2-naphthyl)ethyl]-4-quinolinamine]: the “LEAF BLOT” value in assay [1] was “+ (20-89% control at 400 ppm)”. In addition, the “DOWN MDEW” value in [2] is reported as “+++ (90-100% control at 100 ppm)”. In addition, the mortality at 200 ppm in [3] (setting [13]), in assay [6] (setting [13]) and in assay [7] (setting [13]) was 0% throughout. The mortality at 400 ppm in [3] (setting [14]), in [6] (setting [14]) and in assay [7] (setting [14]) was 0% throughout. Moreover, the “APPL SCAB” value in assay [4] was “- (0-19% control at 400 ppm)”. The “LEAF SPOT” value in assay [5] was “- (0-19% control at 400 ppm)”. In addition, the “GRAY MOLD” value in assay [8] is given as “- (0-19% control at 400 ppm)”. Besides, in assay [9], the “RICE BLAST” value was “+ (20-89% control at 400 ppm)”. Moreover, in [10], the “LEAF RUST” value is “+ (20-89% control at 400 ppm)”. In addition, the “POWD MDEW” value in [11] is reported as “+ (20-89% control at 400 ppm)”. Moreover, the mortality at 12 ppm in assay [12] (CRW rate 12.00 ppm) stood at 0%. Further, in [12] (CRW rate 24.00 ppm), the mortality at 24 ppm was found to be 0%.
Take `Fc1ccc2nccc(NCCC3=CCCCC3)c2c1` [Example 168, N-[2-(1-cyclohexenyl)ethyl]-6-fluoro-4-quinolinamine]: in assay [1], the “LEAF BLOT” value is reported as “- (0-19% control at 400 ppm)”. In [2], the “DOWN MDEW” value is reported as “+++ (90-100% control at 100 ppm)”. The mortality at 200 ppm in assay [3] (setting [13]), in [6] (setting [13]) and in assay [7] (setting [13]) was 0% in each case. The mortality at 400 ppm in assay [3] (setting [14]), in [6] (setting [14]) and in [7] (setting [14]) was 0% each time. In addition, the “APPL SCAB” value in assay [4] was “- (0-19% control at 400 ppm)”. The “LEAF SPOT” value in assay [5] is given as “- (0-19% control at 400 ppm)”. The “GRAY MOLD” value in [8] is given as “- (0-19% control at 400 ppm)”. Moreover, in [9], the “RICE BLAST” value is recorded as “++ (90-100% control at 400 ppm)”. Further, in assay [10], the “LEAF RUST” value was “++ (90-100% control at 400 ppm)”. The “POWD MDEW” value in assay [11] is “+ (20-89% control at 400 ppm)”. In addition, the mortality at 12 ppm in assay [12] (CRW rate 12.00 ppm) turned out to be 0%. In addition, the mortality at 24 ppm in assay [12] (CRW rate 24.00 ppm) is 0%.
With `FC(F)(F)c1ccc2c(NCCc3ccc4ccccc4c3)ccnc2c1` [Example 169, N-[2-(2-naphthyl)ethyl]-7-(trifluoromethyl)-4-quinolinamine], the “LEAF BLOT” value in assay [1] is “- (0-19% control at 400 ppm)”. Besides, the “DOWN MDEW” value in assay [2] is reported as “++ (90-100% control at 400 ppm)”. Moreover, the mortality at 200 ppm in assay [3] (setting [13]), in [6] (setting [13]) and in assay [7] (setting [13]) was 0% each time. The mortality at 400 ppm in assay [3] (setting [14]), in [6] (setting [14]) and in assay [7] (setting [14]) was 0% each time. In [4], the “APPL SCAB” value was “- (0-19% control at 400 ppm)”. Moreover, in assay [5], the “LEAF SPOT” value is recorded as “- (0-19% control at 400 ppm)”. The “GRAY MOLD” value in assay [8] was “- (0-19% control at 400 ppm)”. Besides, the “RICE BLAST” value in assay [9] is on record as “++ (90-100% control at 400 ppm)”. Further, the “LEAF RUST” value in assay [10] is recorded as “+ (20-89% control at 400 ppm)”. Further, in assay [11], the “POWD MDEW” value was “+ (20-89% control at 400 ppm)”. The mortality at 12 ppm in assay [12] (CRW rate 12.00 ppm) was determined as 0%. Further, the mortality at 24 ppm in assay [12] (CRW rate 24.00 ppm) was found to be 0%.
As to `CC(Cc1cccs1)Nc1ccnc2c(F)cccc12` (centres unmarked) [Example 170, 8-fluoro-N-[1-methyl-2-(2-thienyl)ethyl]-4-quinolinamine], in [1], the “LEAF BLOT” value is reported as “- (0-19% control at 400 ppm)”. In [2], the “DOWN MDEW” value is “+ (20-89% control at 400 ppm)”. Besides, the mortality at 200 ppm in assay [3] (setting [13]), in assay [6] (setting [13]) and in assay [7] (setting [13]) was 0% in each case. In addition, the “APPL SCAB” value in [4] is “- (0-19% control at 400 ppm)”. For the same compound, the “LEAF SPOT” value in assay [5] is given as “- (0-19% control at 400 ppm)”. The “GRAY MOLD” value in assay [8] was “- (0-19% control at 400 ppm)”. For the same compound, in assay [9], the “RICE BLAST” value was “+ (20-89% control at 400 ppm)”. Further, in assay [10], the “LEAF RUST” value is recorded as “++ (90-100% control at 400 ppm)”. The “POWD MDEW” value in assay [11] is on record as “+ (20-89% control at 400 ppm)”. Also, the mortality at 12 ppm in assay [12] (CRW rate 12.00 ppm) was 0%.
